This data set deals with MALAT1. The conditions noted are these: ASO, A431, 0.005 µM.

Several values for one entry are separate records, joined by “and”; a condition that tells them apart may be missing. Equal entries are not always repeated. After the bases stand the sugars from the 5' end (letter, count) and the backbone: PS all phosphorothioate, else s phosphorothioate and o phosphodiester by linkage. Methylation of C is not given here. k = constrained ethyl (cEt); d = 2'-deoxy (DNA)

Regarding GCCTTAAAGTTACATT (sugars k3 d10 k3, PS), the target mRNA inhibition is 10%.

As for GGATGAAATGCCTCTG (sugars k3 d10 k3, PS), the target mRNA inhibition amounted to 24%.

As to CTACTTAGCTGTGGTT (sugars k3 d10 k3, PS), the target mRNA inhibition was 33%.

For CCAAATCGCACTGGCT (sugars k3 d10 k3, PS), the target mRNA inhibition worked out at 16%.

Turning to TCGGATGCTTCACTCC (sugars k3 d10 k3, PS), the target mRNA inhibition was 37%.

As for GCATTTCCCATAATTG (sugars k3 d10 k3, PS), the target mRNA inhibition was 46%.

As for TCTTAACTCAAAGTCC (sugars k3 d10 k3, PS), the target mRNA inhibition was 39%.

CGCTTAAGAGGGCAGG (sugars k3 d10 k3, PS): the target mRNA inhibition came to 12%.

In the case of TTAACCAACTTCCCCT (sugars k3 d10 k3, PS), the target mRNA inhibition worked out at 43%.

For the sequence ACTGGATAAGTATTAT (sugars k3 d10 k3, PS), the target mRNA inhibition is 46%.

Regarding CAGCTTCAATCACAAA (sugars k3 d10 k3, PS), the target mRNA inhibition was 33%.

Consider AAATTACACCAGTCCT (sugars k3 d10 k3, PS), for which the target mRNA inhibition was found to be 45%.

On to ATTATGGATCATGCCC (sugars k3 d10 k3, PS), for which the target mRNA inhibition came to 17%.

Take ATAGCAGCGGGATCAG (sugars k3 d10 k3, PS): the target mRNA inhibition stood at 57%.

Take CTCCCCGCCTGAGCCC (sugars k3 d10 k3, PS): the target mRNA inhibition is -23%.

Take AAATACGACTGCTTAA (sugars k3 d10 k3, PS): the target mRNA inhibition was determined as 22%.

In the case of TCTAACAGCACATCAT (sugars k3 d10 k3, PS), the target mRNA inhibition was found to be 22%.

Regarding TCAGGGTTATGCTTAT (sugars k3 d10 k3, PS), the target mRNA inhibition is 64% and 59%.

Turning to GCGGCCCCCCAGTTGC (sugars k3 d10 k3, PS), the target mRNA inhibition was -16%.

As for ACCAAATCGCACTGGC (sugars k3 d10 k3, PS), the target mRNA inhibition was 3%.

TAGTTAATGTCAGCCC (sugars k3 d10 k3, PS): the target mRNA inhibition is 41%.

Consider CTCTAACCCAGTTTGT (sugars k3 d10 k3, PS), for which the target mRNA inhibition stood at 36%.

As for ACAGGAAGGCTCCATG (sugars k3 d10 k3, PS), the target mRNA inhibition is 25%.

Turning to ATGTTAAGAGAAGCCC (sugars k3 d10 k3, PS), the target mRNA inhibition is -17%.

Take TATCTTCACCACGAAC (sugars k3 d10 k3, PS): the target mRNA inhibition was found to be 0%.

For TGCAAGTTAAACTTAT (sugars k3 d10 k3, PS), the target mRNA inhibition was determined as 25%.

Regarding CTATCTGAAACTCTTG (sugars k3 d10 k3, PS), the target mRNA inhibition is 57% and 34%.

With GCCTGCTCGCCTCCTC (sugars k3 d10 k3, PS), the target mRNA inhibition worked out at 41%.

For the sequence GGACTCTTTTCCTATC (sugars k3 d10 k3, PS), the target mRNA inhibition is -4%.

As to CCGTCATGTTTTAGAA (sugars k3 d10 k3, PS), the target mRNA inhibition was 58% and 61%.

As to GACATTCAAGCTGAAC (sugars k3 d10 k3, PS), the target mRNA inhibition came out at 53%.

As to GGTGAGGCTGACACTT (sugars k3 d10 k3, PS), the target mRNA inhibition came out at 27%.

Regarding TATAGACGGAGAACAA (sugars k3 d10 k3, PS), the target mRNA inhibition came to 30%.

On to TAAATTACACCAGTCC (sugars k3 d10 k3, PS), for which the target mRNA inhibition was determined as 44%.

As to AAGCATTCCTTCGGAT (sugars k3 d10 k3, PS), the target mRNA inhibition was -8%.

Take CGAAACTCCCCCATTA (sugars k3 d10 k3, PS): the target mRNA inhibition turned out to be 15%.

For TAGTTGGCATCAAGGC (sugars k3 d10 k3, PS), the target mRNA inhibition was 72% and 69%.

GCTCCCCGCCTGAGCC (sugars k3 d10 k3, PS): the target mRNA inhibition came to 8%.

Turning to TCAAGCATTCCTTCGG (sugars k3 d10 k3, PS), the target mRNA inhibition was 73% and 67%.

In the case of TCAACATTTGGCCTAC (sugars k3 d10 k3, PS), the target mRNA inhibition came out at 21%.

Consider CCGAAGACACAGAGAC (sugars k3 d10 k3, PS), for which the target mRNA inhibition turned out to be 2%.

On to CACGGAAATTTTTCTA (sugars k3 d10 k3, PS), for which the target mRNA inhibition was 8%.

For TCCTGATCTGGTCCAT (sugars k3 d10 k3, PS), the target mRNA inhibition turned out to be 42%.

Consider ATCTAGGCCATCATAC (sugars k3 d10 k3, PS), for which the target mRNA inhibition is 32%.

TCGCAGACAAAGTTTC (sugars k3 d10 k3, PS): the target mRNA inhibition worked out at 31%.

Take TTAAGACCATCCCAAA (sugars k3 d10 k3, PS): the target mRNA inhibition worked out at 5%.

For CCTACCACTCTAAGAT (sugars k3 d10 k3, PS), the target mRNA inhibition came to 27%.

Consider CCCCGCCTCAGTTACA (sugars k3 d10 k3, PS), for which the target mRNA inhibition came to 35%.

For ACTAAGCGAATGGCTT (sugars k3 d10 k3, PS), the target mRNA inhibition was -9%.

With CAGTAGGTATAGTTTA (sugars k3 d10 k3, PS), the target mRNA inhibition was -17%.

In the case of CACTCTAAGATTGTAA (sugars k3 d10 k3, PS), the target mRNA inhibition was 33%.

As to TCAAGGCACTGATCAC (sugars k3 d10 k3, PS), the target mRNA inhibition was found to be 49%.

Take TGAAAACTCCCCCCCG (sugars k3 d10 k3, PS): the target mRNA inhibition worked out at 21%.

Consider TGACAAGCAATTAACT (sugars k3 d10 k3, PS), for which the target mRNA inhibition was found to be 28%.

Take AGTAACTACCAGCCAT (sugars k3 d10 k3, PS): the target mRNA inhibition is 45%.

Take CCTTCTGAACCGGAGC (sugars k3 d10 k3, PS): the target mRNA inhibition was -4%.

With AAATCGGAGCAGCACG (sugars k3 d10 k3, PS), the target mRNA inhibition was 16%.

TCCCTTTACACCTCAG (sugars k3 d10 k3, PS): the target mRNA inhibition was found to be 25%.

As to GAGAAACCTACAACAC (sugars k3 d10 k3, PS), the target mRNA inhibition was determined as 11%.

On to ATGTACTCAGCTTCAA (sugars k3 d10 k3, PS), for which the target mRNA inhibition amounted to 44%.

Take TCGATGGAAAAATTTC (sugars k3 d10 k3, PS): the target mRNA inhibition worked out at 30%.

Turning to ACTACTCCAAGCATTG (sugars k3 d10 k3, PS), the target mRNA inhibition was determined as 36%.

For GTCCTAGCTTCATCAA (sugars k3 d10 k3, PS), the target mRNA inhibition was 18%.

As to AGGAAGGCTCCATGGT (sugars k3 d10 k3, PS), the target mRNA inhibition worked out at 11%.

TCTACAAGTTACATGT (sugars k3 d10 k3, PS): the target mRNA inhibition turned out to be 23%.

For CCCAACACTGAACTAC (sugars k3 d10 k3, PS), the target mRNA inhibition was 19%.

Consider CTTCTAAGTTTGTACA (sugars k3 d10 k3, PS), for which the target mRNA inhibition worked out at 47%.

On to GAAATCGGAGCAGCAC (sugars k3 d10 k3, PS), for which the target mRNA inhibition was found to be 1%.

Take GCCCCAACACTGAACT (sugars k3 d10 k3, PS): the target mRNA inhibition turned out to be 11%.

On to TCTCCGAAGACACAGA (sugars k3 d10 k3, PS), for which the target mRNA inhibition stood at 0%.

Take CTTCCCTATATAAGGT (sugars k3 d10 k3, PS): the target mRNA inhibition is 10%.

Turning to CTTATCAATTCACCAA (sugars k3 d10 k3, PS), the target mRNA inhibition is 47%.

With CAGTCTACAAGTTACA (sugars k3 d10 k3, PS), the target mRNA inhibition was 27%.

Regarding CCATAACTGATCTGAC (sugars k3 d10 k3, PS), the target mRNA inhibition turned out to be 13%.

With ACGGAAATTTTTCTAC (sugars k3 d10 k3, PS), the target mRNA inhibition came to 4%.

As for TCGCATCACCGGAATT (sugars k3 d10 k3, PS), the target mRNA inhibition came to 4%.

On to AGCCTTCGGTGCCTTT (sugars k3 d10 k3, PS), for which the target mRNA inhibition came out at 5%.

For CCCAGCATTACAGTTC (sugars k3 d10 k3, PS), the target mRNA inhibition was determined as 10%.

In the case of TATCAATTCACCAAGG (sugars k3 d10 k3, PS), the target mRNA inhibition worked out at 1%.

In the case of CTCCGAAGACACAGAG (sugars k3 d10 k3, PS), the target mRNA inhibition was -3%.

For the sequence GCATTACAGTTCTTGA (sugars k3 d10 k3, PS), the target mRNA inhibition is 72% and 75%.

CAGTTCAATACTTTCC (sugars k3 d10 k3, PS): the target mRNA inhibition was 45%.

TTGCCCCAACACTGAA (sugars k3 d10 k3, PS): the target mRNA inhibition was 7%.

Consider AGCGGGATCAGAACAG (sugars k3 d10 k3, PS), for which the target mRNA inhibition was found to be 43%.

In the case of GATCGCCTTCAAATTA (sugars k3 d10 k3, PS), the target mRNA inhibition is 39%.

Regarding TTCGCCTTCCCGTACT (sugars k3 d10 k3, PS), the target mRNA inhibition was determined as 63%.

For the sequence TTTACTTTCCATTACG (sugars k3 d10 k3, PS), the target mRNA inhibition was determined as 16%.

As for GCGGACTTTCTCCCCC (sugars k3 d10 k3, PS), the target mRNA inhibition is -24%.

For CCCACAAGGATCCAAG (sugars k3 d10 k3, PS), the target mRNA inhibition is 9%.

As to AGCCACTCAAATGCCT (sugars k3 d10 k3, PS), the target mRNA inhibition was 28%.

On to TCTGATCTGCGGCCCC (sugars k3 d10 k3, PS), for which the target mRNA inhibition was -18%.

Consider CTGGTTATGACTCAGA (sugars k3 d10 k3, PS), for which the target mRNA inhibition amounted to 1%.

In the case of GAATCCTGTCTGCTGC (sugars k3 d10 k3, PS), the target mRNA inhibition came out at 33%.

Take CCAAGAACTAGCACCT (sugars k3 d10 k3, PS): the target mRNA inhibition is -22%.

For CCTGAAATCCCCTAGG (sugars k3 d10 k3, PS), the target mRNA inhibition was -4%.

Take CATGACCCTACTGAAG (sugars k3 d10 k3, PS): the target mRNA inhibition turned out to be 2%.

Regarding TACACTCCTTCTCTAA (sugars k3 d10 k3, PS), the target mRNA inhibition was -18%.

As for ATTATATGCTCATCAC (sugars k3 d10 k3, PS), the target mRNA inhibition came to 51%.

As to TTACACTGCTCTGGGT (sugars k3 d10 k3, PS), the target mRNA inhibition was 2%.

The values above are taken from the OligoGym collection.
